Laboratory results taken from US20220220106A1, “QUINOLINE COMPOUNDS AND PHARMACEUTICAL COMPOSITIONS AND USES THEREOF” (Academy of Military Medical Sciences, priority 2019, published 2022).

Key:
[1] = molecular target: T1, mTOR kinase (Homo sapiens, UniProt P42345); experiment: In vitro inhibitory activity on mTOR kinase (TR-FRET, GFP-4E-BP1 substrate); type: biochemical; conditions: for IC50: 0.5 μg/mL mTOR, 0.4 μM GFP-4E-BP1, 3 μM ATP
T1 construct: purchased Thermo Fisher PV4753
Description: Preparation of Reaction Buffers:
Basic buffer composition: 50 mM (mmol/L) HEPES (pH 7.5), 1 mM EGTA, 0.01% Tween-20, 10 mM MnCl2, 2 mM DTT (diluted from 500 mM before used).
(2) mTOR kinase buffer solution: 1650 μL of 2.5×mTOR kinase buffer solution was composed of 1640.2 μL of 1× basic buffer and 9.8 μL of mTOR (0.21 mg/mL stock solution), and the final concentration was 0.5 μg/mL.
(3) Detection buffer solution: 3960 μL of 2× detection buffer solution was composed of 3797.1 μL of TR-FRET buffer diluent (purchased from Thermo Fisher, catalog number: PV3574), 4.5 μL of Tb-anti-p4E-BP1 antibody (3.49 μM stock solution, purchased from Thermo Fisher, catalog number: PV4757) and 158 μL of EDTA (500 mM stock solution), and the final concentrations were 2 nM Tb-anti-p4E-BP1 antibody and 10 mM EDTA.
(1) 20 μL of 100% DMSO solution containing 5 mM compound to be tested was added to a 96-well plate.
(2) The compound was serially diluted 3 times in DMSO.
(3) 1 μL of the compound in the previous step was taken, diluted with 19 μL of mTOR kinase buffer, and transferred to another 96-well plate.
(4) 4 μL of mTOR kinase solution (purchased from Thermo Fisher, catalog number: PV4753) was added to a 384-well plate.
(5) 2 μL of the compound in G was taken out and added to the 384-well plate with mTOR kinase, and incubated at room temperature for 15 minutes.
(6) 4 μL of substrate solution was added to initiate the reaction.
The final concentrations of mTOR reaction solution were: 0.5 μg/mL mTOR, 0.4 μM GFP-4E-BP1, 3 μM ATP.
The final concentration of the DMSO solution was 1%.
(7) Incubation was performed for 60 minutes at room temperature.
(8) 10 μL of detection buffer was added. The final concentrations were 2 nM Tb-anti-p4E-BP1 antibody and 10 mM EDTA.
(9) Incubation was performed for 30 minutes at room temperature.
(10) TR-FRET value was read on MD5 multi-mode plate reader (Molecular Devices). The excitation wavelength was 340 nm, the emission wavelength 1 was 495 nm, and the emission wavelength 2 was 520 nm. The ratio of 520 nm/495 nm readings was calculated as TR-FRET value.
IC50 of compound was fitted by nonlinear regression equation:
Y=Bottom+(Top-Bottom)/(1+10^((LogIC50-X)*HillSlope));
X: common logarithm value of compound concentration; Y: TR-FRET value (520 nm/495 nm).

[2] = Water solubility in saturated aqueous solution (HPLC, one-point method); type: physicochemical; conditions: for Water solubility: deionized water, 25° C.
Description: By measuring the solubility of compound in a saturated aqueous solution, the water solubility of the compound was further investigated.
Preparation of Supersaturated Solution:
(1) About 1 mg of the compound to be tested was weighed and added to a 25 mL tube;
(2) 5 mL of deionized water was added, shaken well, placed in a vortex shaker and mixed for 30 seconds, then treated ultrasonically for 30 seconds;
(3) The tube was placed in a constant temperature water bath, and allowed to stand in a constant temperature water bath at 25° C. for 1 hour;
(4) The operation of (2) was repeated, and the standing at constant temperature of 25° C. was continued for 1 hour;
(5) The prepared supersaturated solution supernatant was taken out and placed in a centrifuge tube, centrifuged at 15000 rpm for 5 minutes, and the upper centrifugate was taken out for later use.
Liquid Chromatography Method:
(1) Chromatographic column: Agilent XDB Eclipse C18, 25 cm×4.6 mm×5 μm liquid chromatography column.
(2) Mobile phase: Phase A: water (0.1% trifluoroacetic acid); Phase B: acetonitrile.
(3) Flow rate: 1.0 mL/min.
(4) Sampling volume: 10 μl.
Preparation of standard solution: 1.0 mg of the sample to be tested was accurately weighed, added to a 10 mL volumetric flask, dissolved in methanol as solvent, metered to a constant volume of 10 mL, the concentration of solution was calculated, and it was used as a standard solution for later use.
By using the one-point method, the chromatographic peak area of the standard solution of the sample to be tested was determined, and then the peak area of the supersaturated compound was determined, and the solubility of the compound to be tested in water was calculated accordingly.

[3] = system: Enterovirus 71 (EV71) H strain; experiment: In vitro anti-EV71 activity (antiviral activity in RD cells, CellTiter-Glo); type: cell-based; conditions: for IC50: Enterovirus A, 96 h, EV71 H strain, RD cells, 4 days, CellTiter-Glo, read-out: IC50
Method in brief: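 RD cells infected with 100TCID50 EV71 in DMEM+2% FBS, with compound in 10-point three-fold dilutions, cultured 4 days at 37° C. Cell viability by CellTiter-Glo luminescence; inhibition rate relative to cell control fitted to S-curve for IC50. TD50 derived likewise; SI=TD50/IC50.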

T1 sequence (P42345 1360-2549 limits assumed): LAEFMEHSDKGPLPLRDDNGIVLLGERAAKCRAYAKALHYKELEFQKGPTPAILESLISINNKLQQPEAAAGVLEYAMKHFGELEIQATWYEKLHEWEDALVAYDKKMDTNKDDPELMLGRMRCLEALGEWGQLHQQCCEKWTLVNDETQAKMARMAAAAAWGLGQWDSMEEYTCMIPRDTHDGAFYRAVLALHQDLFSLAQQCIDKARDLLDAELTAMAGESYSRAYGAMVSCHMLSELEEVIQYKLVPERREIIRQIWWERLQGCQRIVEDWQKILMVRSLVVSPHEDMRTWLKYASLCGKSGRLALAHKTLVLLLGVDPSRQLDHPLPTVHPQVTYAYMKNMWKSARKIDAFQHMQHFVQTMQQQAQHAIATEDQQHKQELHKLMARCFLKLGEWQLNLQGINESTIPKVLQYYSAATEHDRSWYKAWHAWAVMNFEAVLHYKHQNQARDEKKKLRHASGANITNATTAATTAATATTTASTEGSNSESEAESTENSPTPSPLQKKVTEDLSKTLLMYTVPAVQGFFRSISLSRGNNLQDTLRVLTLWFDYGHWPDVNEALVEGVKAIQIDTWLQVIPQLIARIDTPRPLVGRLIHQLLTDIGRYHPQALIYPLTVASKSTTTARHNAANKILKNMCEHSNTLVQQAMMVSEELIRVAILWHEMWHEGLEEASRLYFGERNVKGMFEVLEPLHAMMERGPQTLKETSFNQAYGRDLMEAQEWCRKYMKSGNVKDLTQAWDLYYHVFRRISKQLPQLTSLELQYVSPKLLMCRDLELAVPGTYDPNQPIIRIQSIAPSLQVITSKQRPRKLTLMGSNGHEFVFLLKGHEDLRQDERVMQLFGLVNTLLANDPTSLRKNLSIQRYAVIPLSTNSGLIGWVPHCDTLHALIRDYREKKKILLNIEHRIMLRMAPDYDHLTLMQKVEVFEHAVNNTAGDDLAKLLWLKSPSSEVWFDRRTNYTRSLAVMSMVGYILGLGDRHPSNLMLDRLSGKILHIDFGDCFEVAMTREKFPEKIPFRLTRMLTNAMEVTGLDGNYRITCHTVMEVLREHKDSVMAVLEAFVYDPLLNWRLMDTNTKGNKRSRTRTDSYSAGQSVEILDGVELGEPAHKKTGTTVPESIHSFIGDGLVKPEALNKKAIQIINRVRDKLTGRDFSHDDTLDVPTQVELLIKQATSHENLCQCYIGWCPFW

SMILES	inhibitory activity on mTOR kinase, in words [1]	IC50 [1]	Water solubility [2]	IC50 [3]	water solubility, in words [2]	melting point	in vitro anti-EV71 activity, in words ([3]; EV71, RD cells)
COc1ccc(-c2ccc3ncc4ccc(=O)n(-c5cccc(C(F)(F)F)c5)c4c3c2)cn1 [HTL-7-03, 9-[3-(6-methoxy)pyridyl]-2-oxo-1-[3-(trifluoromethyl)phenyl]-1,2-dihydrobenzo[h][1,6]naphthyridine]	excellent inhibitory activity	7.25 nM	0.61 µg/mL	40 ± 10 nM	–	–	–
CCC(=O)Nc1ccc(-c2ccc3ncc4ccc(=O)n(-c5cccc(C(F)(F)F)c5)c4c3c2)cn1 [HTL-6-45, 9-[3-(6-propionylamino)pyridyl]-2-oxo-1-[3-(trifluoromethyl)phenyl]-1,2-dihydrobenzo[h][1,6]naphthyridine]	–	29.2 nM	0.39 µg/mL	27 ± 10 nM	–	–	–
CN1CCN(c2ccc(-c3ccc4ncc5ccc(=O)n(-c6cccc(C(F)(F)F)c6)c5c4c3)cn2)CC1 [HTL-7-17, 9-{3-[6-(4-methylpiperazin-1-yl)pyridyl]}-2-oxo-1-[3-(trifluoromethyl)phenyl]-1,2-dihydrobenzo[h][1,6]naphthyridine]	excellent inhibitory activity	1.15 nM	18.64 µg/mL	100 ± 30 nM	relatively high water solubility	–	–
O=c1ccc2cnc3ccc(-c4ccc(F)nc4)cc3c2n1-c1cccc(C(F)(F)F)c1 [HTL-7-01, 9-[3-(6-fluoro)pyridyl]-2-oxo-1-[3-(trifluoromethyl)phenyl]-1,2-dihydrobenzo[h][1,6]naphthyridine]	–	28.8 nM	0.42 µg/mL	70 ± 10 nM	–	–	–
COc1ncc(-c2ccc3ncc4ccc(=O)n(-c5cccc(C(F)(F)F)c5)c4c3c2)cn1 [HTL-7-06, 9-[5-(2-methoxy)pyrimidyl]-2-oxo-1-[3-(trifluoromethyl)phenyl]-1,2-dihydrobenzo[h][1,6]naphthyridine]	excellent inhibitory activity	4.82 nM	–	50 ± 10 nM	–	262 to 264 °C	–
O=c1ccc2cnc3ccc(-c4cccnc4F)cc3c2n1-c1cccc(C(F)(F)F)c1 [HTL-6-48, 9-[3-(2-fluoro)pyridyl]-2-oxo-1-[3-(trifluoromethyl)phenyl]-1,2-dihydrobenzo [h][1,6]naphthyridine]	–	31.5 nM	5.88 µg/mL	59 nM	relatively high water solubility	–	high activity
